Biological target: T1, Bifunctional aspartokinase/homoserine dehydrogenase 1 (Escherichia coli (strain K12), UniProt P00561)
T1 sequence (P00561 whole entry): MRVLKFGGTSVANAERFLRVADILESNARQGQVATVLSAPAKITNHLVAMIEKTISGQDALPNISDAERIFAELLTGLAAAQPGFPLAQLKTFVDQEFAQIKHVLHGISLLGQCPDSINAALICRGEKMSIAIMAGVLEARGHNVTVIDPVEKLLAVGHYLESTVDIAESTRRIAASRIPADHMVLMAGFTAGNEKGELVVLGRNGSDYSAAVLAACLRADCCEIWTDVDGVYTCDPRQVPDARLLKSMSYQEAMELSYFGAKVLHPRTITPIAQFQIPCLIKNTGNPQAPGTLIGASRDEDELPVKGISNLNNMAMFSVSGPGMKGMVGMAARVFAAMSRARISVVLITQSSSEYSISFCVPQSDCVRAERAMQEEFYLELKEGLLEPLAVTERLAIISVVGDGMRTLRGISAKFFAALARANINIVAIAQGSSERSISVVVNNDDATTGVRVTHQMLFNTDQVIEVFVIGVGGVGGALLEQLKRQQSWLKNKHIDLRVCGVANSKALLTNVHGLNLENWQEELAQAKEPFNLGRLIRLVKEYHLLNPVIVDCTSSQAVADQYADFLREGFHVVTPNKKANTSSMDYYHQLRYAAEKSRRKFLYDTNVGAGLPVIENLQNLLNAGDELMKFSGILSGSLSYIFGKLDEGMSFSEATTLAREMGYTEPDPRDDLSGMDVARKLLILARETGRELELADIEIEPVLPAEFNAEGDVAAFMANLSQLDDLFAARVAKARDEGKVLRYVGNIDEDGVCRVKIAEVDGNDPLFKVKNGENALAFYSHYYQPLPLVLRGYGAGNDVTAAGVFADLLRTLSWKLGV
Experiment: Inhibition Assay
Source text: Analogues of L-aspartic acid and beta-aspartyl phosphate were examined as inhibitors in the aspartokinase I reaction by using the coupled reaction with ASA-DH.

| Compound | Ki [mM] |
| --- | --- |
| NCC(O)C(=O)O (racemic) [DL-Isoserine] | 30 |
| NC(C(=O)O)C(=O)O [Aminomalonate] | 23 |
| NC(CCCP(=O)(O)O)C(=O)O (stereo not drawn) [DL-2-Amino-5-phosphonovalerate] | 8.4 |
| NC(CCP(=O)(O)O)C(=O)O (stereo not drawn) [DL-2-amino-4-phosphonobutyrate] | 61 |
| N[C@@H](CCOP(=O)(O)O)C(=O)O [Homoserine phosphate] | 6 |
| N[C@@H](CN(O)N=O)C(=O)O [L-Alanosine] | 7.5 |
| CC(C)[C@H](N)C(=O)O [L-Valine] | 32 |
| CCCC[C@H](N)C(=O)O [L-norleucine] | 24 |

Other lines, results leading:

| Ki [mM] | Compound |
| --- | --- |
| 10 | NCC[C@H](N)C(=O)O [2,4-Diaminobutanoate] |
| 5 | CCC(N)C(=O)O (stereo not given) [2-Aminobutyrate] |
| 45 | NC(CC(=O)O)CC(=O)O [3-Aminoglutarate] |
| 39 | NC(=O)C[C@@H](N)C(=O)O [D-asparagine] |
| 11 | N[C@@H](CC(=O)O)C(=O)OCc1ccccc1 [D-aspartate alpha-benzyl ester] |
| 16 | N[C@@H](CC(=O)NO)C(=O)O [D-aspartate-beta-hydroxamate] |
| 71 | COC(=O)C[C@H](N)C(=O)OC [L-Aspartic dimethyl ester] |
| 38 | N[C@@H](CCC(=O)O)C(=O)O [L-Glutamic acid] |
| 3.1 | CCC[C@H](N)C(=O)O [L-Norvaline] |
| 99 | C[C@H](N)C(=O)O [L-alanine] |
| 24 | COC(=O)CC[C@H](N)C(=O)O [L-glutamate gamma-methyl ester] |
| 12 | N[C@@H](COP(=O)(O)O)C(=O)O [O-phospho-L-serine] |

From BindingDB's records for doi:10.1021/bi00118a023 (University of Akron, 1992)
